Here are results for two compounds from US12629363B2, “Prophylaxis and treatment of angioedema” (PHARVARIS GMBH, priority 2020, dated 2026).

For data set [1] the following is noted: in vivo; cited from earlier work.
The target of data set [2] is T1, rat B2 receptor (Rattus norvegicus, UniProt P25023).
T1 construct: expressed in transfected cells
T1 sequence (P25023 1-396): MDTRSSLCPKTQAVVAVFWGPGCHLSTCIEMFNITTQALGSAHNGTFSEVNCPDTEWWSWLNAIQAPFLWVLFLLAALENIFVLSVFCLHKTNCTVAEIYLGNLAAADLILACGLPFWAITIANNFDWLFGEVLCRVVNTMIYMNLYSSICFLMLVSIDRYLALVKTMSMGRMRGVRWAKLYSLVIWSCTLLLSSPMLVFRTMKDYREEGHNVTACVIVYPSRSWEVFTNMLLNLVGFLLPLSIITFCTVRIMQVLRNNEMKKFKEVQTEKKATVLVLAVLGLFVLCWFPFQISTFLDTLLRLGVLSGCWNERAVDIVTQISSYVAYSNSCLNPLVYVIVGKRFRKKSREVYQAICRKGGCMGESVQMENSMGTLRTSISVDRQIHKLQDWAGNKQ
Description: Antagonist potency in cells expressing rat B2 receptor. Type of data set: cell-based. The settings on record: rat B2 receptor. An excerpt:
(§1) The bradykinin B2 receptor is well known for its species selective pharmacology (Paquet et al., Br. J. Pharmacol. (126), 1083-1090, 1999 (DOI: 10.1038/sj.bjp.0702403); Burgess et al., Br. J. Pharmacol. (129), 77-86, 2000 (DOI: 10.1038/sj.bjp.0703012)). […] Pharmacol. 11:916; DOI: 10.3389/fphar.2020.00916.

Data set [3] relates to acute HAE attacks. The conditions noted are these: cited from earlier work.
Data set [4] addresses T2, BK B2 receptor (Homo sapiens, UniProt P30411).
T2 sequence (P30411 1-391): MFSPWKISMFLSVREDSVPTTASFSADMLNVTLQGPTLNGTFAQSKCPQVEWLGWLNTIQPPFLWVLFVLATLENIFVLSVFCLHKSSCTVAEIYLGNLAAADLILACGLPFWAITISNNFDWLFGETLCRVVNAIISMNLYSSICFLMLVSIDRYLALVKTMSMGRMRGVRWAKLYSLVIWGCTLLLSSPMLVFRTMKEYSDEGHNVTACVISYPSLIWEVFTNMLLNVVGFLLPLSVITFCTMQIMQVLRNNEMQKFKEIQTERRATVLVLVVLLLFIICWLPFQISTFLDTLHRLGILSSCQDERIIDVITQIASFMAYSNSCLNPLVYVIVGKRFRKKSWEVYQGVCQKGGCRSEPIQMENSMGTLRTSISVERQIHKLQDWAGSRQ
The settings on record: cited from earlier work.

Data set [5] deals with T3, cynomolgus monkey B2 receptor (Macaca fascicularis, UniProt A0A7N9CWN6).
T3 sequence (A0A7N9CWN6 1-391): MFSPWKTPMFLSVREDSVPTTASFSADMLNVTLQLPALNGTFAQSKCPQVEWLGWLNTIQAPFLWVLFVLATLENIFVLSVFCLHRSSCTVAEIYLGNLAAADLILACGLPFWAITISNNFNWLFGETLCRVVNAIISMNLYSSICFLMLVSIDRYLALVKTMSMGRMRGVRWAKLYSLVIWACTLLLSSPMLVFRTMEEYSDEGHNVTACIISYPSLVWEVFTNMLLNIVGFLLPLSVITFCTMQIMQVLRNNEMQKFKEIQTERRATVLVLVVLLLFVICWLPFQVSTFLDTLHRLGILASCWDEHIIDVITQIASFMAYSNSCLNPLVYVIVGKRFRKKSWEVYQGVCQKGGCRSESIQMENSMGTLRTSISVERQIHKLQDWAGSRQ
The data set is described as follows: Antagonist potency in cells expressing cynomolgus monkey B2 receptor. Format: cell-based. The conditions noted are these: read-out: Kb value to antagonize BK activation.
Description: as §1

In data set [6] the target is T4, mouse B2 receptor (Mus musculus, UniProt P32299).
T4 construct: expressed in transfected cells
T4 sequence (P32299 1-392): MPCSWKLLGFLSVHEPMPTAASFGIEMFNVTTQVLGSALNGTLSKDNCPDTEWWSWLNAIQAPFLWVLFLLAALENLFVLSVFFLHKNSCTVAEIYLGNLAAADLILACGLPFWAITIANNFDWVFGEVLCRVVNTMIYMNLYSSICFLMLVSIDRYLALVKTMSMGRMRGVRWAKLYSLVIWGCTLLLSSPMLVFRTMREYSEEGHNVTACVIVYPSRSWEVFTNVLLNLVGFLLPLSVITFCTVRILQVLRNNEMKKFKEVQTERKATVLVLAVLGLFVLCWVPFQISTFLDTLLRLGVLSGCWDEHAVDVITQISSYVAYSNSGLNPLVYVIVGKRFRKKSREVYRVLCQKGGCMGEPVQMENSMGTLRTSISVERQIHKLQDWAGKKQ
Description: Antagonist potency in cells expressing mouse B2 receptor. The conditions noted are these: mouse B2 receptor. Type of data set: cell-based.
Description: as §1

The target in data set [7] is T5, dog B2 receptor (Canis lupus familiaris, UniProt Q9BDQ4).
T5 construct: expressed in transfected cells
T5 sequence (Q9BDQ4 1-392): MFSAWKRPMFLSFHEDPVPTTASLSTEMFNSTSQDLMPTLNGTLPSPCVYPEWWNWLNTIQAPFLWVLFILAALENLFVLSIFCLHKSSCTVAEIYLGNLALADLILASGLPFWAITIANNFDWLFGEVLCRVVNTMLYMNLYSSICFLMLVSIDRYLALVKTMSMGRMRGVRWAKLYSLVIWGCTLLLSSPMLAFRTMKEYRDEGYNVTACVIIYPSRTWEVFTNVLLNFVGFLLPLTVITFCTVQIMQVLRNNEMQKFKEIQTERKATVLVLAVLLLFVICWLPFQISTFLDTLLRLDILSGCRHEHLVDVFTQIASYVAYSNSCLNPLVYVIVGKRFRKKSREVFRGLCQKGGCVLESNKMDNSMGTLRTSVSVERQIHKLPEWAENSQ
The data set is described as follows: Antagonist potency in cells expressing dog B2 receptor. The conditions noted are these: dog B2 receptor. Format: cell-based.
Description: as §1

Data set [8] can be described thus: Drug-drug interaction trial with itraconazole, PK (Example 5).
Description: Thirteen healthy subjects were enrolled and completed the study.
On Days 4 to 8, subjects received once daily oral doses of 200 mg itraconazole one hour before start of a standard meal.
Trough plasma concentrations of itraconazole were determined by taking predose plasma samples on Days 4-7, to document exposure to itraconazole.

Converted amounts (≈) assume the structure as drawn.

Consider `NC(N)=NCCC[C@@H](N)C(=O)N[C@@H](CCCN=C(N)N)C(=O)N1CCC[C@H]1C(=O)N1C[C@H](O)C[C@H]1C(=O)NCC(=O)N[C@@H](Cc1cccs1)C(=O)N[C@@H](CO)C(=O)N1Cc2ccccc2C[C@@H]1C(=O)N1[C@H](C(=O)N[C@@H](CCCN=C(N)N)C(=O)O)C[C@@H]2CCCC[C@@H]21` [icatibant], for which the half-life in data set [1] was 1.4 h. This compound also returned a Kb in data set [2] of 5.6 nM. The “time after which therapeutic response to an acute HAE attack wanes” value in data set [3] (human, in vivo) is reported as “approximately 6 hours”. Further, the “onset of relief in acute HAE attacks” value in data set [3] (placebo 19.8 h, Lumry et al. 2011) was 2.0 h. Besides, in data set [4] (in vivo, sc), the “Time plasma level above EC85 at a 75% confidence level” value is 5.5 h; the “Time plasma level above EC85 at a 75% confidence level, DBP” value is given as 5.5 h; the “Time plasma level above EC85 at a 75% confidence level, MAP” value was 5.5 h. For the same compound, in data set [4] (in vivo), the “intrinsic PD potency at the K B2 receptor” value was 8.9 nM and the “time plasma concentration above EC85 (85% effective) at 50% probability” value is 5.5 h. Besides, in data set [4] (plasma concentration, FDA Clinical Pharmacology Review Firazyr), the “EC85 (published, BK challenge)” value was 0.0538 µg/mL (≈ 0.0412 µM). Further, in data set [5], the Kb is 4.06 nM. In data set [6], the antagonist dissociation constant (Kb) came out at 4.4 nM. Besides, the Kb in data set [7] came out at 30.7 nM.
Regarding `CCC(C)n1ncn(-c2ccc(N3CCN(c4ccc(OCC5COC(Cn6cncn6)(c6ccc(Cl)cc6Cl)O5)cc4)CC3)cc2)c1=O` (stereo not drawn) [itraconazole], the “mean predose plasma concentration (Ctrough)” value turned out to be 386 ± 82.2 ng/mL in data set [8] (Day 4, itraconazole 200 mg dosing) and 597 ± 178 ng/mL in data set [8] (Day 7, itraconazole 200 mg dosing).

A word on the half-life: it is the time needed for the level to fall by half in the phase considered. What is called Kb is the affinity of an antagonist, worked out from how it opposes an agonist.
